# Reference: article PMC4161441, “Unravelling the Multiple Functions of the Architecturally Intricate Streptococcus pneumoniae β-galactosidase, BgaA” (PLoS Pathogens, 2014)
# How the values were obtained:
# [1] = molecular target: T1, CBM71-2 (Streptococcus pneumoniae, UniProt Q8DQP4); assay: UV difference spectroscopy; assay type: binding; conditions: 25 °C; too weak to quantify
# T1 construct: gene bgaA; pET28-based expression in E. coli; exact borders not in text
# [2] = molecular target: T2, CBM71-1 (Streptococcus pneumoniae, UniProt Q8DQP4); assay: UV difference spectroscopy; assay type: binding; conditions: 25 °C; too weak to quantify
# T2 construct: gene bgaA; pET28-based expression in E. coli; exact borders not in text
# T2 sequence (Q8DQP4 entry or part of it): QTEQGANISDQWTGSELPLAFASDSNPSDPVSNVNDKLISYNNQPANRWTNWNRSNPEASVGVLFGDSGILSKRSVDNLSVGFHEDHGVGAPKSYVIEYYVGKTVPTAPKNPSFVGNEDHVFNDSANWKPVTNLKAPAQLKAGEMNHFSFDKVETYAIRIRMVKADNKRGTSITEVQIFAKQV
# [3] = molecular target: T1, CBM71-2; assay: isothermal titration calorimetry; assay type: binding; conditions: PBS, 25 °C
# [4] = molecular target: T2, CBM71-1; assay: isothermal titration calorimetry; assay type: binding; conditions: PBS, 25 °C
# [5] = molecular target: T3, BgaA catalytic region (GH2; SpBgaA) (Streptococcus pneumoniae, UniProt A0A0H2UP19); assay: isothermal titration calorimetry; assay type: binding
# T3 construct: N-terminal catalytic region, domains I-V (GH2 region printed as residues 138-993; SpBgaA146-990 in cell assay); pET28-based expression in E. coli; source strain and exact borders not in main text
# [6] = molecular target: T3, BgaA catalytic region (GH2; SpBgaA); assay: steady-state kinetics, UV-visible spectrophotometry; apparent Km/Vmax against inhibitor concentration; assay type: biochemical
# T1 sequence (Q8DQP4 entry or part of it): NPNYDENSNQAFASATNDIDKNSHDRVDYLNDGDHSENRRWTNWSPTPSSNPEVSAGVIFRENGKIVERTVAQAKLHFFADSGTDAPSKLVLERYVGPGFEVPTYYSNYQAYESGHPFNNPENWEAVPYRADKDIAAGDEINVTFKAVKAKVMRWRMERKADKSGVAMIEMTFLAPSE
SMILES,Kd [3] [µM],Kd [4] [µM],Ki [6] [µM],also measured
OC[C@H]1OC(O)[C@H](O)[C@@H](O)[C@H]1O (stereo partly drawn) [D-galactose],–,–,–,"UV difference spectroscopy [1]: For both CBMs, the binding to galactose was too weak to quantify; UV difference spectroscopy [2]: only D-galactose gave a signature UV difference spectrum consistent with sugar binding"
CC(=O)N[C@H]1C(O)O[C@H](CO)[C@@H](O[C@@H]2O[C@H](CO)[C@H](O)[C@H](O)[C@H]2O)[C@@H]1O (stereo partly drawn) [LacNAc],247,251,–,–
OC[C@H]1CNC[C@@H](O)[C@H]1O [galactoisofagomine],–,–,0.025,Kd [5]: 0.026 µM
OC[C@H]1NC(O)[C@H](O)[C@@H](O)[C@H]1O (stereo partly drawn) [galactonojirimycin],–,–,33.9,–
OC[C@H]1O[C@@H](O[C@H]2[C@H](O)[C@@H](O)C(O)O[C@@H]2CO)[C@H](O)[C@@H](O)[C@H]1O (stereo partly drawn) [lactose],378,368,–,–
